# ChEMBL document CHEMBL3046502, “In vitro antimicrobial and antitubercular studies of novel 6-substituted (pyrrolidin-1-yl)-2(1H)-pyridinones” (2012)
# Columns and labels:
# Assay type in all cases: functional
# [1] = system: Mycobacterium tuberculosis; assay: Antimicrobial activity against Mycobacterium tuberculosis H37Rv; conditions: for MIC: Mycobacterium tuberculosis, H37Rv
# Candida albicans = assay: Antimicrobial activity against Candida albicans MTCC 227
# Aspergillus niger = assay: Antimicrobial activity against Aspergillus niger MTCC 282
# Staphylococcus aureus = assay: Antimicrobial activity against Staphylococcus aureus MTCC 96 by broth microdilution method
# Escherichia coli = assay: Antimicrobial activity against Escherichia coli MTCC 442 by broth microdilution method
# Aspergillus clavatus = assay: Antimicrobial activity against Aspergillus clavatus MTCC 1323
# Pseudomonas aeruginosa = assay: Antimicrobial activity against Pseudomonas aeruginosa MTCC 2488 by broth microdilution method
# Streptococcus pyogenes = assay: Antimicrobial activity against Streptococcus pyogenes MTCC 443 by broth microdilution method
SMILES,inhibition (INH) [1],MIC [1],MIC (Candida albicans),MIC (Aspergillus niger),MIC (Staphylococcus aureus),MIC (Escherichia coli),MIC (Aspergillus clavatus),MIC (Pseudomonas aeruginosa),MIC (Streptococcus pyogenes)
COc1ccc(-c2cc(N3CCCC3)n(-c3cccc(Cl)c3)c(=O)c2/N=N/c2ccc(Cl)cc2[N+](=O)[O-])cc1,98%,1000 µg/mL,500 µg/mL,200 µg/mL,250 µg/mL,250 µg/mL,200 µg/mL,500 µg/mL,250 µg/mL
COc1ccc(-c2cc(N3CCCC3)n(-c3cccc(Cl)c3)c(=O)c2/N=N/c2ccc([N+](=O)[O-])cc2Cl)cc1,,,250 µg/mL,500 µg/mL,200 µg/mL,250 µg/mL,500 µg/mL,250 µg/mL,200 µg/mL
COc1ccc(-c2cc(N3CCCC3)n(-c3cccc(Cl)c3)c(=O)c2/N=N/c2cc(Cl)ccc2Cl)cc1,,,1000 µg/mL,> 1000 µg/mL,500 µg/mL,250 µg/mL,> 1000 µg/mL,500 µg/mL,500 µg/mL
COc1ccc(-c2cc(N3CCCC3)n(-c3cccc(Cl)c3)c(=O)c2/N=N/c2ccc([N+](=O)[O-])cc2)cc1,,,250 µg/mL,> 1000 µg/mL,250 µg/mL,250 µg/mL,> 1000 µg/mL,250 µg/mL,250 µg/mL
COc1ccc(-c2cc(N3CCCC3)n(-c3cccc(Cl)c3)c(=O)c2/N=N/c2cccc([N+](=O)[O-])c2)cc1,,,500 µg/mL,500 µg/mL,250 µg/mL,200 µg/mL,500 µg/mL,200 µg/mL,250 µg/mL
COc1ccc(-c2cc(N3CCCC3)n(-c3cccc(Cl)c3)c(=O)c2/N=N/c2ccccc2[N+](=O)[O-])cc1,,,500 µg/mL,500 µg/mL,100 µg/mL,100 µg/mL,500 µg/mL,200 µg/mL,100 µg/mL
COc1ccc(-c2cc(N3CCCC3)n(-c3cccc(Cl)c3)c(=O)c2/N=N/c2ccc(C)cc2)cc1,,,250 µg/mL,250 µg/mL,200 µg/mL,200 µg/mL,250 µg/mL,200 µg/mL,200 µg/mL
COc1ccc(-c2cc(N3CCCC3)n(-c3cccc(Cl)c3)c(=O)c2/N=N/c2cccc(C)c2)cc1,,,500 µg/mL,500 µg/mL,150 µg/mL,250 µg/mL,500 µg/mL,250 µg/mL,200 µg/mL
COc1ccc(-c2cc(N3CCCC3)n(-c3cccc(Cl)c3)c(=O)c2/N=N/c2ccccc2C)cc1,,,1000 µg/mL,1000 µg/mL,500 µg/mL,200 µg/mL,1000 µg/mL,500 µg/mL,500 µg/mL
COc1ccc(-c2cc(N3CCCC3)n(-c3cccc(Cl)c3)c(=O)c2/N=N/c2ccc(Cl)cc2)cc1,,,1000 µg/mL,1000 µg/mL,500 µg/mL,500 µg/mL,1000 µg/mL,500 µg/mL,500 µg/mL
COc1ccc(-c2cc(N3CCCC3)n(-c3cccc(Cl)c3)c(=O)c2/N=N/c2cccc(Cl)c2)cc1,,,250 µg/mL,500 µg/mL,100 µg/mL,500 µg/mL,500 µg/mL,500 µg/mL,100 µg/mL
COc1ccc(-c2cc(N3CCCC3)n(-c3cccc(Cl)c3)c(=O)c2/N=N/c2ccccc2Cl)cc1,,,500 µg/mL,250 µg/mL,250 µg/mL,100 µg/mL,250 µg/mL,100 µg/mL,250 µg/mL
COc1ccc(-c2cc(N3CCCC3)n(-c3cccc(Cl)c3)c(=O)c2/N=N/c2ccccc2)cc1,,,200 µg/mL,500 µg/mL,200 µg/mL,62.5 µg/mL,500 µg/mL,100 µg/mL,250 µg/mL
COc1ccc(-c2cc(Cl)n(-c3cccc(Cl)c3)c(=O)c2)cc1,,,500 µg/mL,500 µg/mL,200 µg/mL,100 µg/mL,500 µg/mL,100 µg/mL,200 µg/mL
CC1(C)S[C@@H]2[C@H](NC(=O)[C@H](N)c3ccccc3)C(=O)N2[C@H]1C(=O)O [AMPICILLIN],,,,,250 µg/mL,100 µg/mL,,100 µg/mL,100 µg/mL
O=C(O)c1cn(C2CC2)c2cc(N3CCNCC3)c(F)cc2c1=O [CIPROFLOXACIN],,,,,50 µg/mL,25 µg/mL,,,50 µg/mL
COC1=CC(=O)C[C@@H](C)[C@]12Oc1c(Cl)c(OC)cc(OC)c1C2=O [GRISEOFULVIN],,,500 µg/mL,100 µg/mL,,,100 µg/mL,,
CO[C@H]1/C=C/O[C@@]2(C)Oc3c(C)c(O)c4c(O)c(c(/C=N/N5CCN(C)CC5)c(O)c4c3C2=O)NC(=O)/C(C)=C\C=C\[C@H](C)[C@H](O)[C@@H](C)[C@@H](O)[C@@H](C)[C@H](OC(C)=O)[C@@H]1C [RIFAMPIN],98%,40 µg/mL,,,,,,,
